test system: A549; test: Cytotoxicity against human A549 cells after 72 hrs by sulforhodamine B method; assay type: functional; details: A549, 72 h

Compared with CN[C@@H]1C[C@H]2O[C@@](C)([C@@H]1OC)n1c3ccccc3c3c4c(c5c6ccccc6n2c5c31)C(=O)NC4 [STAUROSPORINE], CO[C@@H]1[C@H](N)C[C@H]2O[C@]1(C)n1c3ccc(O)c(O)c3c3c4c(c5c6ccccc6n2c5c31)C(=O)NC4=O is 7.3-fold higher in GI50: 2.4 nM for the first, 17.5 nM for the second.

For CN[C@@H]1C[C@H]2O[C@@](C)([C@@H]1OC)n1c3ccc(O)c(O)c3c3c4c(c5c6cc(O)ccc6n2c5c31)C(=O)NC4=O, the GI50 was 26.6 nM.

test system: HT-29; test: Cytotoxicity against human HT29 cells after 72 hrs by sulforhodamine B method; assay type: functional; details: HT-29, 72 h

Compared with CN[C@@H]1C[C@H]2O[C@@](C)([C@@H]1OC)n1c3ccccc3c3c4c(c5c6ccccc6n2c5c31)C(=O)NC4 [STAUROSPORINE], CO[C@@H]1[C@H](N)C[C@H]2O[C@]1(C)n1c3ccc(O)c(O)c3c3c4c(c5c6ccccc6n2c5c31)C(=O)NC4=O is 8.3-fold higher in GI50: 10.9 nM for the first, 90.3 nM for the second.

CN[C@@H]1C[C@H]2O[C@@](C)([C@@H]1OC)n1c3ccc(O)c(O)c3c3c4c(c5c6cc(O)ccc6n2c5c31)C(=O)NC4=O showed a GI50 of 68.1 nM.

test system: MDA-MB-231; test: Cytotoxicity against human MDA-MB-231 cells after 72 hrs by sulforhodamine B method; assay type: functional; details: MDA-MB-231, 72 h

Going from CN[C@@H]1C[C@H]2O[C@@](C)([C@@H]1OC)n1c3ccccc3c3c4c(c5c6ccccc6n2c5c31)C(=O)NC4 [STAUROSPORINE] to CO[C@@H]1[C@H](N)C[C@H]2O[C@]1(C)n1c3ccc(O)c(O)c3c3c4c(c5c6ccccc6n2c5c31)C(=O)NC4=O, the GI50 rises from 7.1 nM to 32.1 nM (4.5-fold).

In the case of CN[C@@H]1C[C@H]2O[C@@](C)([C@@H]1OC)n1c3ccc(O)c(O)c3c3c4c(c5c6cc(O)ccc6n2c5c31)C(=O)NC4=O, the GI50 was 28.4 nM.
